How the values were obtained:
p38 MAPKα = p38 MAPKα (Homo sapiens (Human), UniProt Q16539); assay: p38 MAPKα enzyme inhibition (FRET, Z-LYTE); format: biochemical
cSrc = cSrc (Homo sapiens (Human), UniProt P12931); assay: c-Src enzyme inhibition (FRET, Z-LYTE); format: biochemical
Summary of the method: (§1)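 Z-LYTE FRET kinase assay: enzyme (3000 or 2000 ng/mL stock, respectively) preincubated 2 h at RT with compound (4–0.004 μg/mL stocks), then FRET peptide plus ATP (800 μM stock for c-Src, 60 μM for Syk) added for 1 h. Protease development 1 h; phosphorylation from coumarin/fluorescein emission ratio.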

Syk = Syk (Homo sapiens (Human), UniProt P43405); assay: Syk enzyme inhibition (FRET, Z-LYTE); format: biochemical
Summary of the method: as §1

GSK3α = GSK3α (Homo sapiens (Human), UniProt P49840); assay: GSK 3α enzyme inhibition (FRET, Z-LYTE); format: biochemical
Summary of the method: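 Phosphorylation was read as the donor (coumarin) to acceptor (fluorescein) ratio after a 1 hr protease step destroying non-phosphorylated peptide. Before this, compound (4–0.004 μg/mL stocks) sat 2 hr at RT with GSK3α (500 ng/mL stock), followed by 1 hr kinase reaction with 8 μM peptide and 40 μM ATP stocks.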

[1] = test system: LPS-induced TNFα release in d-U937 cells; assay: LPS-induced TNFα release in d-U937 cells; format: cell-based; details: Homo sapiens, dU937, relative to 10 μg/mL BIRB796, read-out: LPS Induced Release of Cytokine in d-937 Cells TNFα REC50
Summary of the method: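 Read-out: TNFα and IL-8 released into supernatant, sandwich ELISA, expressed as inhibition versus vehicle at each dose and fitted to give REC50. Cells were PMA-differentiated U937 (100 ng/mL, 48–72 hr), compound-exposed 2 hr before a 4 hr LPS stimulus (0.1 μg/mL).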

[2] = test system: LPS-induced IL-8 release in d-U937 cells; assay: LPS-induced IL-8 release in d-U937 cells; format: cell-based; details: Homo sapiens, dU937, read-out: LPS Induced Release of Cytokine in d-937 Cells IL-8 IC50
Summary of the method: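 Human monocytic U937 cells were differentiated to macrophage-type cells with PMA (100 ng/mL) for 48 to 72 hr, pre-treated with test compound for 2 hr, then stimulated 4 hr with E. coli O111:B4 LPS (0.1 μg/mL). Supernatant TNFα and IL-8 were measured by sandwich ELISA; REC50 came from concentration-response curves.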

[3] = test system: Poly I:C-induced ICAM-1 expression in BEAS2B cells; assay: Poly I:C-induced ICAM-1 expression in BEAS2B cells; format: cell-based; details: Homo sapiens, BEAS-2B, read-out: Poly IC induced ICAM1 in BEAS2B IC50
Summary of the method: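 Cell-based ELISA read at 450 nm minus 655 nm, divided by crystal violet OD595 to normalize for cell number, gave ICAM-1 levels. Readout was taken 18 hr after poly I:C (1 μg/mL, Oligofectamine) transfection of human bronchial BEAS2B cells pretreated 2 hr with test compound.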

d-U937 cells = assay: Cell viability: MTT assay; format: cell-based, human; details: 1 μg/mL
Summary of the method: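 MTT read-out (1 h, absorbance 550 nm) on d-U937 cells after pre-incubation with 1 or 10 μg/mL compound under two regimes: 4 h, 5% FCS, or 24 h, 10% FCS RPMI1640. Values are percent loss of viability relative to vehicle (0.5% DMSO), so increases are reported as negative.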

GSK3α, sequence (P49840 whole entry): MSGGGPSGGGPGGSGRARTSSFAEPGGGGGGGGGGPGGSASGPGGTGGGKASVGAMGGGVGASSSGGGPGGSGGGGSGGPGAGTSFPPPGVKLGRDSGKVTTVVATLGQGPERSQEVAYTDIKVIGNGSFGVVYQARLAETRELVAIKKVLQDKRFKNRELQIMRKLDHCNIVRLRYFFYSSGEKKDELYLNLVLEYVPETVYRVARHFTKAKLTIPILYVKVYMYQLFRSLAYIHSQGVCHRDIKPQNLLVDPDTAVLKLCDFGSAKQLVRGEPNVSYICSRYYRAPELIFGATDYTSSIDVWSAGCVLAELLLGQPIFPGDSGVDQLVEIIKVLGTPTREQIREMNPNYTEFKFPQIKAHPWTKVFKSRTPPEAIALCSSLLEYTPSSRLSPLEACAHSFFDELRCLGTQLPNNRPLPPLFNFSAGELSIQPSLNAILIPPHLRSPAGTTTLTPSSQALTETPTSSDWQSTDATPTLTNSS
p38 MAPKα, sequence (Q16539 whole entry): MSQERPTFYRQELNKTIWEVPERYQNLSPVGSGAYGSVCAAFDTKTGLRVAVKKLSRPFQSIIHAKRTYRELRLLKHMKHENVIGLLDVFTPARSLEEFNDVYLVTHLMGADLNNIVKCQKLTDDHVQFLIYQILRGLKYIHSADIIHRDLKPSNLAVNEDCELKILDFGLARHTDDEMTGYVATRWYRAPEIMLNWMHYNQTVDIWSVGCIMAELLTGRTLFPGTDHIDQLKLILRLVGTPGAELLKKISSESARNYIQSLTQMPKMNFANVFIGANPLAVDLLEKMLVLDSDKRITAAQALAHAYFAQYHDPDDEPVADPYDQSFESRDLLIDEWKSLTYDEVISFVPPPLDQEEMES
cSrc, sequence (P12931 whole entry, looked up): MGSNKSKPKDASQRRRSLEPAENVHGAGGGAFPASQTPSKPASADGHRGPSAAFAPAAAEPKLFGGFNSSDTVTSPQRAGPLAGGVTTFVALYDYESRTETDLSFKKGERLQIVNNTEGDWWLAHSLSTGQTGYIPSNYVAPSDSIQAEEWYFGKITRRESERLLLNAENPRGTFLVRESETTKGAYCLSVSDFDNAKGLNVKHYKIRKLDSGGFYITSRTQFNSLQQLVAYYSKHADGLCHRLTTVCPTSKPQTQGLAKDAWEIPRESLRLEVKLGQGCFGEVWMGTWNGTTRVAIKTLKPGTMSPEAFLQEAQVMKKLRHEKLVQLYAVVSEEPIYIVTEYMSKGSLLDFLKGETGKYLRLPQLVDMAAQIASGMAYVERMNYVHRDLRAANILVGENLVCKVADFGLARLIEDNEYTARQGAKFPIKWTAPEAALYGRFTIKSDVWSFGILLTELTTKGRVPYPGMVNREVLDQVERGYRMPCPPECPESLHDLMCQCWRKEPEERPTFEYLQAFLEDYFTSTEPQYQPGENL

SMILES	IC50 (p38 MAPKα)	IC50 (cSrc)	IC50 (Syk)	IC50 (GSK3α)	EC50 [1]	IC50 [2]	IC50 [3]	MTT Assay Cell viability at time point in d-U937 cells 4 h (d-U937 cells)	MTT Assay Cell viability at time point in d-U937 cells 24 h (d-U937 cells)
CC(C)(C)c1cc(NC(=O)Nc2ccc(Oc3ccnc(Nc4ccc5c(c4)COC5)n3)c3ccccc23)n(-c2ccc(OCCN3CCOCC3)cc2)n1 [Example 60, 1-(3-(tert-butyl)-1-(4-(2-morpholinoethoxy)phenyl)-1H-pyrazol-5-yl)-3-(4-((2-((1,3-dihydroisobenzofuran-5-yl)amino)pyrimidin-4-yl)oxy)naphthalen-1-yl)urea]	94 nM	2 nM	13 nM	686 nM	1.8 nM	10.3 nM	1.4 nM	−ve (−ve and +ve indicate that the value is below and above respectively, the no significant effect threshold, defined as 30% inhibition at 1 μg/mL at the time point indicated.)	−ve (−ve and +ve indicate that the value is below and above respectively, the no significant effect threshold, defined as 30% inhibition at 1 μg/mL at the time point indicated.)
Cc1cc(Nc2nccc(Oc3ccc(NC(=O)Nc4cc(C(C)(C)C)nn4-c4ccc(=O)n(CCO)c4)c4ccccc34)n2)cc2cn[nH]c12 [Example 87, 1-(3-(tert-butyl)-1-(1-(2-hydroxyethyl)-6-oxo-1,6-dihydropyridin-3-yl)-1H-pyrazol-5-yl)-3-(4-((2-((7-methyl-1H-indazol-5-yl)amino)pyrimidin-4-yl)oxy)naphthalen-1-yl)urea]	45 nM	2 nM	4 nM	1100 nM	1.7 nM	2.3 nM	1 nM	−ve (−ve and +ve indicate that the value is below and above respectively, the no significant effect threshold, defined as 30% inhibition at 1 μg/mL at the time point indicated.)	−ve (−ve and +ve indicate that the value is below and above respectively, the no significant effect threshold, defined as 30% inhibition at 1 μg/mL at the time point indicated.)
CC(C)(C)c1cc(NC(=O)Nc2ccc(Oc3cc(Nc4ccc5[nH]ncc5c4)ncn3)c3ccccc23)n(-c2ccc(=O)n(CCO)c2)n1 [Example 14, 1-(4-((6-((1H-Indazol-5-yl)amino)pyrimidin-4-yl)oxy)naphthalen-1-yl)-3-(3-(tert-butyl)-1-(1-(2-hydroxyethyl)-6-oxo-1,6-dihydropyridin-3-yl)-1H-pyrazol-5-yl)urea]	3 nM	2 nM	7 nM	1090 nM	7.5 nM	18.4 nM	52.4 nM	−ve (−ve and +ve indicate that the value is below and above respectively, the no significant effect threshold, defined as 30% inhibition at 1 μg/mL at the time point indicated.)	−ve (−ve and +ve indicate that the value is below and above respectively, the no significant effect threshold, defined as 30% inhibition at 1 μg/mL at the time point indicated.)
Cc1ccc(-n2nc(C(C)(C)C)cc2NC(=O)Nc2ccc(Oc3ccnc(Nc4ccc5[nH]nc(C(=O)NCCN6CCOCC6)c5c4)n3)c3ccccc23)cc1 [Example 3, 5-((4-((4-(3-(3-(tert-Butyl)-1-(p-tolyl)-1H-pyrazol-5-yl)ureido)naphthalen-1-yl)oxy)pyrimidin-2-yl)amino)-N-(2-morpholinoethyl)-1H-indazole-3-carboxamide]	19 nM	6 nM	95 nM	2330 nM	5.2 nM	34.8 nM	6.8 nM	−ve (−ve and +ve indicate that the value is below and above respectively, the no significant effect threshold, defined as 30% inhibition at 1 μg/mL at the time point indicated.)	−ve (−ve and +ve indicate that the value is below and above respectively, the no significant effect threshold, defined as 30% inhibition at 1 μg/mL at the time point indicated.)
